Experimental data reported in ChEMBL document CHEMBL1152722, “5-Aryl-4-(5-substituted-2,4-dihydroxyphenyl)-1,2,3-thiadiazoles as inhibitors of Hsp90 chaperone” (Bioorg Med Chem Lett, 2009).

Experiments:
[1] = biological target: Heat shock protein HSP 90-alpha (Homo sapiens, UniProt P07900)
Description: Binding affinity to human full length Histidine6-tagged Hsp90alpha expressed in Escherichia coli BL21 DE3 by ITC

Heat shock protein HSP90 = Heat shock protein HSP90 (Homo sapiens, UniProt P07900+P08238)
Description: Binding affinity to human Histidine6-tagged Hsp90alpha N-terminal domain expressed in Escherichia coli BL21 DE3 by ITC

U2OS = experiment: Growth inhibition of human U2OS cells after 72 hrs by XTT assay; format: functional
HeLa = experiment: Growth inhibition of human HeLa cells after 72 hrs by XTT assay; format: functional

SMILES | Kd [1] [µM] | Kd (Heat shock protein HSP90) [µM] | GI50 (U2OS) [µM] | GI50 (HeLa) [µM]
COc1ccc(-c2snnc2-c2cc(Cl)c(O)c(Cl)c2O)cc1 | > 20 | > 20 | – | –
CCOc1ccc(-c2snnc2-c2cc(CC)c(O)c(Cl)c2O)cc1 | > 20 | > 20 | 28 | 19
CCOc1ccc(-c2snnc2-c2cc(Cl)c(O)cc2O)cc1 | – | – | 6.9 | 3.6
CCOc1ccc(-c2snnc2-c2cc(CC)c(O)cc2O)cc1 | – | – | 0.69 | 0.7
COc1ccc(-c2snnc2-c2cc(Cl)c(O)cc2O)cc1OC | – | – | 9.9 | 4.2
Cc1ccc(-c2snnc2-c2cc(Cl)c(O)cc2O)cc1 | – | – | 7.1 | 3.3
COc1ccc(-c2snnc2-c2cc(Cl)c(O)cc2O)cc1 | – | – | 6 | 2.5
